Experimental data from US5496805A, “Inhibitors of neutral endopeptidase” (priority 1990, dated 1996).
Structures can show the parent of a compound that is named as a salt. Square brackets hold non-standard residues; d marks the D form. Peptide text beside a SMILES is read from it. Mpa = O=C(O)CCS

Target: T1, neutral endopeptidase (Rattus norvegicus, UniProt P07861)
T1 sequence (P07861 1-750): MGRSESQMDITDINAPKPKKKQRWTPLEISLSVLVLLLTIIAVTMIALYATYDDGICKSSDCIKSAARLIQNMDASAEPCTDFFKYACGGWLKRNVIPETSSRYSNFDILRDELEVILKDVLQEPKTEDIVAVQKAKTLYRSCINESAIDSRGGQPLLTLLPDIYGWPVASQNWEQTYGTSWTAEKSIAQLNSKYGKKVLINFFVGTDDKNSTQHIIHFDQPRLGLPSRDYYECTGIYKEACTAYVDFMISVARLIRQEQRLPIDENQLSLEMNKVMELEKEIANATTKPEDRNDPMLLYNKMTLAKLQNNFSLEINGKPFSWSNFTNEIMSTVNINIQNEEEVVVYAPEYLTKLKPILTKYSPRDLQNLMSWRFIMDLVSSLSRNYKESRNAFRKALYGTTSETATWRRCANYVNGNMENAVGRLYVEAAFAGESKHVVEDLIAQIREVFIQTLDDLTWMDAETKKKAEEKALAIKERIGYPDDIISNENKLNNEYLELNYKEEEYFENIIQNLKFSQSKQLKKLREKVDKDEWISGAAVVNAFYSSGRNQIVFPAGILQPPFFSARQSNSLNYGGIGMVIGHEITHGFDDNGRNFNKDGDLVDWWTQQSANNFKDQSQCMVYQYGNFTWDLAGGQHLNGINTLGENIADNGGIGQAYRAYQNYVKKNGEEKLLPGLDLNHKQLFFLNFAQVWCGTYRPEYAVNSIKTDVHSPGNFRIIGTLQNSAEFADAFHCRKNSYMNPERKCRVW
Assay: biochemical
Conditions: enzyme purified from rat kidney; Dns-Gly-Phe-Arg 0.5 mM; pH 7.5; 37°, 30 minutes; inhibitor preincubated 10 minutes
Procedure: The in vitro neutral endopeptidase activity is determined using a fluorometric assay procedure. The assay is based upon the cleavage of the fluorescent dansylated tripeptide Dns-Gly-Phe-Arg to form Dns-Gly. The latter is extracted from the acidified mixture by ethyl acetate and is strongly fluorescent.
The incubation mixture employed for the assay contains the substance Dns-Gly-Phe-Arg (0.5 mM), tris(hydroxymethyl)aminomethane -HCl buffer (pH 7.5, 50 mM), an enzyme preparation in 0.05% Triton X-100, and water or inhibitor diluted to a final volume of 0.25 ml. The enzyme preparation is purified from rat kidney according to the procedure described by Almenoff et al. in Biochemistry Vol. 22, p. 590-599 (1983). The inhibitor is preincubated for 10 minutes with the enzyme preparation and buffer before the reaction is initiated by the addition of the substrate. Incubation is carried out at 37° for 30 minutes and the reaction is stopped by the addition of 0.25 ml. 1N HCl and extraction of the Dns-Gly product into 1.5 ml. of ethyl acetate. Relative fluorescent intensity (RFI) of the ethyl acetate extract is measured using a Ferrand Spectofluorometer at excitation and emission wavelengths of 342 and 508 nm., respectively, corrected for the RFI of a zero-time control, and compared with assays lacking inhibitor.
Runs are made at different concentrations of test compound and by use of a mathematical model the IC50 is determined. The IC50 is the concentration of test compound that inhibits activity of the enzyme by 50%.

IC50	SMILES
32 nM	O=C(NCCCC[C@H](NC(=O)C(CS)Cc1ccccc1)C(=O)O)OCc1ccccc1 (mixture of isomers) [Example 26, (±)-N^2-[2-(Mercaptomethyl)-1-oxo-3-phenylpropyl]-N^6-[(phenylmethoxy)carbonyl]-L-lysine, N-cyclohexylcyclohexanamine salt (1:1)]
370 nM	CC(CS)C(=O)NCC(=O)O (racemic) [Example 16, (±)-N-(3-Mercapto-2-methyl-1-oxopropyl)glycine]
8.9 nM	O=C(N[C@@H](Cc1ccccc1)C(=O)O)C(CS)Cc1ccccc1 (single isomer, unassigned; isomer b) [Example 32, N-[2-(Mercaptomethyl-1-oxo-3-phenylpropyl]-L-phenylalanine (isomer B)]
36 nM	C[C@H](CS)C(=O)N[C@@H](CC(=O)O)C(=O)O [Example 42, (S)-N-(3-Mercapto-2-methyl-1-oxopropyl)-L-aspartic acid]
69 nM	CC(C)C[C@H](NC(=O)C(C)CS)C(=O)O (mixture of isomers) [Example 18, (±)-N-(3-Mercapto-2-methyl-1-oxopropyl)-L-leucine, 1,1-dimethylethanamine salt (1:1)]
220 nM	C[C@H](CS)C(=O)N[C@@H](CC(N)=O)C(=O)O [Example 44, (S)-N^2-(3-Mercapto-2-methyl-1-oxopropyl)-L-asparagine]
17 nM	O=C(N[C@@H](Cc1ccc(O)cc1)C(=O)O)C(CS)Cc1ccccc1 (mixture of isomers) [Example 29, (±)-N-[2-(Mercaptomethyl)-1-oxo-3-phenylpropyl]-L -tyrosine]
15 nM	N=C(N)NCCC[C@H](NC(=O)CNC(=O)C(CS)Cc1ccccc1)C(=O)O (stereo partly drawn) [Example 82, N-[N-[2-(Mercaptomethyl)-1-oxo-3-phenylpropyl]glycyl]-L-arginine]
120 nM	O=C(CS)N[C@@H](Cc1ccccc1)C(=O)N[C@@H](Cc1ccccc1)C(=O)O [Example 61, N-[N-(Mercaptoacetyl)-L-phenylalanyl]-L-phenylalanine]
330 nM	CC(C)C[C@H](NC(=O)[C@H](Cc1ccccc1)N[C@@H](Cc1ccccc1)C(=O)O)C(=O)O [Example 80, N-[N-[(S)-l-Carboxy-2-phenylethyl]-L-phenylalanyl]-L-leucine]
7.8 nM	O=C(N[C@@H](Cc1c[nH]c2ccccc12)C(=O)O)C(CS)Cc1ccccc1 (mixture of isomers) [Example 28, (±)-N-[2-(Mercaptomethyl)-1-oxo-3-phenylpropyl]-L -tryptophan, 1,1-dimethylethanamine salt (1:1)]
1200 nM	CC(C)C[C@@H](NC(=O)[C@@H](Cc1ccccc1)NC(=O)[C@@H]1CCCC[C@H]1C(=O)O)C(=O)O (mixture of isomers) [Example 81, (trans)(R,R)-N-[N-[(2-Carboxycyclohexyl)carbonyl]-L-phenylalanyl]-L-leucine]
170 nM	CC(C)CC(CS)C(=O)N[C@@H](CCCNC(=N)N)C(=O)O (mixture of isomers) [Example 11, (±)-N^2-[2-(Mercaptomethyl)-4-methyl-1-oxopentyl]-L-arginine]
2200 nM	CC(C)C[C@H](NC(=O)[C@H](Cc1ccccc1)OP(=O)(O)CCc1ccccc1)C(=O)O [Example 77, N-[(S)-2-[[Hydroxy(2-phenylethy1)phosphinyl]oxy]-1-oxo-3-phenylpropyl]-L-leucine, dilithium salt]
76 nM	O=C(O)CCCCCCCCCCNC(=O)C(CS)Cc1ccccc1 (racemic) [Example 53, (±)-11-[[2-(Mercaptomethyl)-1-oxo-3-phenylpropyl]amino]undecanoic acid]
6 nM	O=C(O)CCCNC(=O)C(CS)Cc1ccccc1 (racemic) [Example 46, (±)-4-[[2-(Mercaptomethyl)-1-oxo-3-phenylpropyl]amino]butanoic acid]
18 nM	O=C(O)C[C@H](Cc1ccccc1)NC(=O)C(CS)Cc1ccccc1 (single isomer, unassigned; isomer a) [Example 47]
530 nM	CC(C)CC(CS)C(=O)NCC(=O)N[C@@H](CCCN=C(N)N)C(=O)O (mixture of isomers) [Example 55, (±)-N-[N,[2-(Mercaptomethyl)-4-methyl-1-oxopentyl]-glycyl]-L-arginine]

IC50	SMILES
30 nM	C[C@@H](CS)C(=O)N[C@@H](Cc1ccc(O)c(O)c1)C(=O)O [Example 15, 3-Hydroxy-N-(R-3-mercapto-2-methyl-1-oxopropyl)-L-tyrosine]
310 nM	CC(C)C[C@H](NC(=O)CS)C(=O)NCC(=O)O [Example 63, N-[N-(Mercaptoacetyl)-L-leucyl]glycine]
720 nM	CC(CS)C(=O)N[C@@H](CCCNC(=N)N)C(=O)O (mixture of isomers) [Example 3, N-(DL-3-Mercapto-2-methyl-1-oxopropyl)-L-arginine]
290 nM	N=C(N)NCCC[C@H](NC(=O)C(CS)Cc1ccccc1)C(=O)O (mixture of isomers) [Example 4, N-[DL-2-(Mercaptomethyl)-1-oxo-3,-phenylpropyl]-L-arginine]
52 nM	O=C(O)C[C@H](Cc1ccccc1)NC(=O)C(CS)Cc1ccccc1 (single isomer, unassigned; isomer b) [Example 48]
40 nM	O=C(O)CCNC(=O)C(Cc1ccccc1)CP(=O)(O)O (centres unmarked) [Example 75, 3-[[1-Oxo-2-(phenylmethyl)-3-phosphonopropyl]amino]propanoic acid]
59 nM	O=C(O)CCCCCNC(=O)C(CS)Cc1ccccc1 (racemic) [Example 50, (±)-6-[[2-(Mercaptomethyl)-1-oxo-3-phenylpropyl]amino]hexanoic acid]
510 nM	CCCC(C)C(CS)C(=O)NCC(=O)O (racemic) [Example 10, (±)-N-[2-(Mercaptomethyl)-3-methyl-1-oxohexyl]-glycine, N-cyclohexylcyclohexanamine salt (1:1)]
3.3 nM	CC(C)CC(CS)C(=O)N[C@@H](C)C(=O)O (single isomer, unassigned; isomer a) [Example 12, N-[2-(Mercaptomethyl)-4-methyl-1-oxopentyl]-L-alanine (isomer A)]
20 nM	CC(CS)C(=O)N[C@@H](Cc1c[nH]c2ccccc12)C(=O)O (mixture of isomers) [Example 5, N-(DL-3-Mercapto-2-methyl-1-oxopropyl)-L-tryptophan]
740 nM	O=C(CCS)N[C@@H](Cc1ccccc1)C(=O)N[C@@H](Cc1ccccc1)C(=O)O [Example 62, N-[N-(3-Mercapto-1-oxopropyl)-L-phenylalanyl]-L-phenylalanine] ([Mpa]-Phe-Phe-OH)
49 nM	CSCC[C@H](NC(=O)C(C)CS)C(=O)O (mixture of isomers) [Example 23, (±)-N-(3-Mercapto-2-methyl-1-oxopropyl)-L-methionine, 1,1-dimethylethanamine salt (1:1)]
950 nM	CC(C)C[C@H](NC(=O)C(Cc1ccccc1)CP(C)(=O)O)C(=O)O (stereo partly drawn) [Example 74, N-[2-[(hydroxymethylphosphinyl)methyl]-1-oxo-3-phenylpropyl]-L-leucine, dilithium salt]
730 nM	C[C@H](CS)C(=O)N[C@H](C(=O)O)[C@@H](C)O [Example 41, (S)-N-(3-Mercapto-2-methyl-1-oxopropyl)-L-threonine]
940 nM	O=C(O)CCCCCCNC(=O)[C@H](Cc1ccccc1)N[C@@H](Cc1ccccc1)C(=O)O [Example 79, 7-[[N-[(S)-l-Carboxy-2-phenylethyl]-L-phenylalanyl]amino]heptanoic acid]
12 nM	O=C(O)CC(=O)NC(CS)Cc1ccccc1 (centres unmarked) [Example 69, 3-[[1-(Mercaptomethyl)-2-phenylethyl]amino]-3-oxo-propanoic acid]
54 nM	CC(CS)C(=O)N[C@@H](Cc1ccc(O)c(O)c1)C(=O)O (mixture of isomers) [Example 7, 3-Hydroxy-N-(DL-3-mercapto-2-methyl-1-oxopropyl)-L-tyrosine]
